Measurements from patent EP0888346B1, “CORALYNE ANALOGS AS TOPOISOMERASE INHIBITORS” (RUTGERS, THE STATE UNIVERSITY OF NEW JERSEY, priority 1996, dated 1997).
Converted amounts (≈) assume the structure as drawn. “And” between values parts separate entries of the source, which are not always exact repeats. Equal entries are not always repeated.

How the values were obtained:
[1] = system: human epidermoid carcinoma KB 3-1 cell line; assay: MTA cytotoxicity assay, epidermoid carcinoma cells; format: cell-based; settings: KB 3-1, 96 h, read-out: Cytotoxicity KB3-1
Procedure: (§1) The results were plotted and the IC50 then measured.
(§2) The coralyne analog 7c was tested for its effectiveness against glioblastoma cells. The assay used was similar to that described above for the RPMI-8402 cell line. The results are shown in table 2 below which compares the effect of Compound 7c against the leukemia cell line (RPMI 8402), epidermal carncinoma (KB3-1) and glioblastoma (SF-268): Table 2

[2] = system: glioblastoma cell line SF-268; assay: MTA cytotoxicity assay, glioblastoma cells; format: cell-based; settings: Homo sapiens, SF-268, 96 h, read-out: Cytotoxicity SF-268
Procedure: as §1, §2

human topoisomerase I = target: T1, human topoisomerase I (Homo sapiens, UniProt P11387); assay: Topo I cleavage assay (plasmid YEpG DNA); format: biochemical
T1 construct: 15 amino acid vector-derived fusion (pET-11a leader); made in house; host or cells: E. coli BL21(DE3)
T1 sequence (P11387 1-765): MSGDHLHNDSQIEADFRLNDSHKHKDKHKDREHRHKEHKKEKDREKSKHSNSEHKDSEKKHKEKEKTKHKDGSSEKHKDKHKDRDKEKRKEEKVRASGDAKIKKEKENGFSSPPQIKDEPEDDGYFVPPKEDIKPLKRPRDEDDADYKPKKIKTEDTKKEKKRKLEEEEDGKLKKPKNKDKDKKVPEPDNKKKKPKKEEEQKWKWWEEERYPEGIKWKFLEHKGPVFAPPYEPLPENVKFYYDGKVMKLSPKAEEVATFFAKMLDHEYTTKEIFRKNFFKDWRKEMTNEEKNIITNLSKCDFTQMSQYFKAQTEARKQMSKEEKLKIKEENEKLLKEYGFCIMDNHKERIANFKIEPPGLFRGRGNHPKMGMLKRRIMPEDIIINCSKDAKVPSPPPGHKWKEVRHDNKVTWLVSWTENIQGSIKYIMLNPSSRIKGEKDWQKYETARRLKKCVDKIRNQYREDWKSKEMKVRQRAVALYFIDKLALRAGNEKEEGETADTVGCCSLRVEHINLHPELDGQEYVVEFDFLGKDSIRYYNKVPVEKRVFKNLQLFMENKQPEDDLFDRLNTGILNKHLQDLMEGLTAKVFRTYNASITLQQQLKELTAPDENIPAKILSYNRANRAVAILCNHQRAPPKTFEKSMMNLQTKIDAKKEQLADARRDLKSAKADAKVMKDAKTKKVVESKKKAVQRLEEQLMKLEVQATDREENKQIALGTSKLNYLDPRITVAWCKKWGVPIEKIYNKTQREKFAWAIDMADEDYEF
Source text: To obtain large quantity of human topoisomerase I, the human topoisomerase I cDNA was cloned into the pET-11a vector, in which transcription of the cDNA is under the control of the inducible T7 promoter (Studier et al., Methods in Enzymol., Vol. 185:60-89, San Diego: Academic Press (1990)). Briefly, a 3.4 kb DNA fragment containing the entire coding sequence of human topoisomerase I and approximately 1 kb of untranslated region downstream of the stop codon was isolated from the plasmid YCpGAL1-hTOP1 (Bjornsti et al., Cancer Res. 49:6318-6323 (1989)) by cutting at the BamHI and EcoRI sites. The vector pET-11a was cut with the same restriction enzymes, dephosphorylated and ligated to the insert in the proper reading-frame downstream of the vector cloning site. The ligation mixture was used to transform E. coli, the correct clone pET1B was isolated (see figure 2A for the map) and its identity confirmed by restriction mapping. Since the translational start in pET is positioned at an upstream NdeI site, the expressed topoisomerase I has a 15 amino acid fusion at its N-terminus. pET1B was then transformed into E. coli BL21(DE3), and, upon induction with 0.4 mM IPTG for 1 hour, the bacterial lysate was analyzed by 10 % SDS-PAGE. Expression was confirmed by Western blotting using rabbit antibodies against human topoisomerase I. Isolation of the expressed protein was done by a simple procedure. Briefly, E. coli cells were lysed by repeated sonic bursts. The sonic extract was made in 1 M NaCl and 6% polyethylene glycol (PEG) to remove nucleic acids. The PEG supernatant was chromatographed directly on a hydroxyapatite column. Expressed human DNA topoisomerase I was eluted at the 0.6 M potassium phosphate step. The eluted enzyme was dialyzed against 50% glycerol, 30 mM potassium phosphate (pH 7.0), 1 mM dithiothreitol (DTT) and 0.1 mM EDTA and stored at -20°C.
Cleavage assays for the recombinant topoisomerases I and calf thymus topoisomerases I and II were done as described (Liu et al., J. Biol. Chem. 258:15365-15370 (1983)). The plasmid YEpG DNA used for the cleavage assays was prepared and labeled at its 3'-end using the published procedures.

[3] = system: yeast cells expressing functional yeast topoisomerase I; assay: Yeast cytotoxicity assay, strain expressing wild-type yeast topo I; format: cell-based, S. cerevisiae; settings: plates with 1 µM drug (camptothecin 0.5 µM), 3 days at 30°C
Source text: It has been established that yeast can survive when topoisomerase I function is obliterated, and that the topoisomerase I poisons only kill cells having a functional topoisomerase I (Bjornsti et al. Cancer Res. 49:6318-6323 (1989)).
The topoisomerase I-specific in vivo cytotoxicity assay was adapted from Knab et al. (Knab et al., J. Biol. Chem. 268:22322-22330 (1993)). In this system, various topo I genes cloned into the single copy yeast plasmid vector, YCpGAL1 (Knab et al., J. Biol. Chem. 268:22322-22330 (1993)), are expressed under the control of the GAL1 promoter in the JN2-134 strain of S. cerevisiae (MATa, rad52::LEU2, trp1, ade2-1,his7, ura3-52, isel, top1-1, leu2) (Bjornsti et al., Cancer Res. 49:6318-6323 (1989)). The topo I constructs in the vector are, respectively, the wild-type yeast topo I (YCpGAL-ScTOP1), a non-functional yeast topo I where the active site tyrosine-727 is mutated to a phenylalanine (YCpGAL1-Sctop1Y727F) (Knab et al., J. Biol. Chem. 268:22322-22330 (1993)), and the wild type human topoisomerase I (YCpGAL-hTOP1) (Bjornsti et al., Cancer Res. 49:6318-6323 (1989)). To qualitatively test the cytotoxicity and the topo I specificity of the drugs, yeast cells containing the specific plasmid were serially diluted (5-fold) and were grown in dropout medium supplemented with uracil and 2% galactose In addition, the plates contained: A: Control, no drug in the plate; B: Camptothecin (CPT), 0.5 µM; C: Coralyne, 1 µM; D: Methylenedioxy-dihydro-demethyl-coralyne (MDD-Coralyne), 1 µM, and E: Nitidine, 1 µM. The plates were grown for 3 days at 30°C to assess the lethal effect of the different compounds on the various topoisomerase I enzymes expressed in S. cerevisiae.and the drug being tested.

## CC[C@@]1(O)C(=O)OCc2c1cc1n(c2=O)Cc2cc3ccccc3nc2-1 [CPT, camptothecin, reference compound]
[1]
  IC50: 4 ng/mL (≈ 0.0115 µM)
[2]
  IC50: 5 ng/mL (≈ 0.0144 µM)
Human topoisomerase I; concentration relative to camptothecin (CPT) = 1 producing the same cleavage on the plasmid DNA
  Topo I-mediated DNA cleavage (REC, Relative Effective Concentration): 1
Human topoisomerase I; read-out: concentration giving total cleavage of DNA in the presence of topoisomerase I
  EC (total cleavage): 0.29 µM and 0.1 µg/mL
[3]
  cytotoxicity against yeast cells expressing functional yeast topoisomerase I (in words): quite sensitive
